Read-outs that look alike come from different tables or passages of the source.

One experiment deals with 8392 cells (B-cell). Description: cells. The class given is cell-based. The following applies: 2 h.
The subject of the next experiment is 8402, T-cell. As to the kind of experiment: inhibition of thymidine incorporation after two hour exposure, 8402. To be noted: 2 h, Table 1, 8402, two hour exposure. The class given is cell-based. As for the experimental part:
To assess cytotoxic effects, various concentrations of illudins were added to cultures of cells for 48 hours, then cell growth/viability was determined by trypan blue exclusion. As an alternative to 48 hour continuous exposure studies, cells were plated in liquid culture in 96 well plates, exposed to various concentrations of illudins for 2 hours, pulsed with [^3 H]-thymidine for one to two hours and harvested onto glass filters. The filter papers were added to vials containing scintillation fluid and residual radioactivity determined in a beta (scintillation) counter.
two hour exposure to the toxins (N - 3).
A general note: Incorporation of labelled thymidine or its analogues reports DNA synthesis.

Another experiment has as its system MV522 cells. As to the kind of experiment: cells. It is filed as cell-based, human. To be noted: Homo sapiens, MV522, 2 h, read-out: Two hour IC50.
Experiment [1] relates to MDA-231 3-1 (gp170+) cells. Description: sensitivity of mdr lines, MDA-231 3-1. It is filed as cell-based. To be noted: Homo sapiens, MDA-MB-231.
The test system of experiment [2] is MCF7-wt parent (Breast) cells. As to the kind of experiment: sensitivity of mdr lines, MCF7-wt parent. The class given is cell-based. To be noted: Homo sapiens; MCF7-wt Parent; read-out: Sensitivity of mdr lines.
For a further experiment, the system named is KB parent cells. Description: sensitivity of mdr lines, KB parent. The class given is cell-based.
The next experiment deals with HL-60 cells. Description: cells. The class given is cell-based, human.
In another experiment the test system is MV522. As to the kind of experiment: cells. The class given is cell-based. To be noted: Homo sapiens, MV522, 48 h, read-out: 48 hour IC50.
In experiment [3] the test system is human lung adenocarcinoma MV522. As to the kind of experiment: animal or person. The following applies: MV522, ip, read-out: life span.
A further experiment relates to L1210. Description: zone of inhibition / colony formation, L1210.

Regarding `CC1=C2C(=O)C(C)(C)C=C2C(=O)[C@](C)(O)C12CC2` [Dehydroilludin M], the IC50 in the experiment with 8392 cells (B-cell) is above 38000 nM; in the experiment with 8392 cells (B-cell) (read-out: Two hour IC50) it was 61300 nM; in the experiment on 8402, T-cell, above 38000 nM; in the experiment on MV522 cells it was 1830 nM; in [1], 58 ± 11 nM; in [2], 92 ± 15 nM. Also, the IC50 in the experiment with KB parent cells was determined as 125 ± 14 nM; with MV522, 313 ± 23 nM. In addition, the “toxicity to HL-60 cells” value with HL-60 cells was “less toxic”. The response vs control in vivo at 30 mg/kg in [3] came out at 163 ± 6%. In addition, the “Zone Size” value was found to be 400 in the experiment with L1210 (L1210, dilution 1/25); 200 in the experiment with L1210 (L1210, dilution 1/125); 300 with L1210 (L1210, dilution 1/125 (repeat)); 100 in the experiment with L1210 (L1210, dilution 1/625).

(Values after patent US5563176A (priority 1994, dated 1996).)
